Here are results for four molecules from patent US6025365A, “Chelerythrine and radiation combined tumor therapy” (Arch Development Corp., priority 1997, dated 2000).

Series [1] concerns WEHI-231 JM cells. Kind of series: Viability by PI staining and FACS, WEHI-231 JM. It is filed as cell-based, murine. Conditions: Mus musculus, WEHI231, 24 hours. The procedure:
(§1) FIG. 11B. WEHI-231 JM and OE cells are equally sensitive to inhibition of sphingosine kinase and exogenous ceramide. Cells were treated with increasing concentrations of C2-ceramide or DL-threo-dihydrosphingosine--apotent inhibitor of sphingosine kinase. Viability was assayed using PI staining and FACS analysis 24 hours after treatment.
(§2) For viability staining, 2.5-3.5×10^5 cells were treated with varying concentrations of C2-ceramide, irradiation, or both.
(§3) In order to address the question of whether the resistance of the OE subline was due, in part, to alterations in ceramide metabolites or targets, three studies were performed. […] Both cell lines were equally susceptible to the effects of sphingosine kinase inhibition and the resulting […] in ceramide. […] Thus the radioresistance can be attributed to the lack of sphingomyelinase activation and the subsequent decreased ceramide production following irradiation.

The test system of series [2] is WEHI-231 OE cells. Briefly: Viability by PI staining and FACS, WEHI-231 OE. Conditions: Mus musculus, WEHI231, 24 hours. It counts as cell-based, murine. The procedure:
as §1, §2, §3

For another series, the system named is HL-60 cells. Conditions: literature reports; cited from earlier work.
For series [3], the system named is WEHI-231 OE cells. Briefly: Resistance of selected WEHI-231 OE variants to n-oleoylethanolamine. It is filed as cell-based, murine. The note with it: 75 μM n-oleoylethanolamine. Here is the method:
WEHI-231 JM cells (1×10^7) were treated with two successive treatments of 100 μM and 125 μM N-oleoylethanolamine (Matreya), a potent inhibitor of ceramidase (Coroneos et al., 1995; Ambrosini et al., 1994). Cells were grown in media containing n-oleoylethanolamine for 96 hours. Serial dilutions isolated individual resistant cells and were expanded after each selection. Every two weeks cells were re-selected with 125 μM n-oleoethanolamine.

The subject of series [4] is WEHI-231 JM cells. Kind of series: Intracellular ceramide accumulation in WEHI-231 JM cells. It is filed as cell-based, murine. Conditions: within 24 hours. Here is the method: Quantitation of ceramide by diacylglycerol kinase was similar to that described by Dressler and Kolesnick (1990). After irradiation, lipids were extracted and resuspended by bath sonication in 20 μl of 7.5% n-octyl-β-D-glucopyranoside, 5 mM cardiolipin, 1 mM DETAPAC. Seventy μl of a reaction mix was added to give a final concentration of 0.05M imidazole/HCl pH 6.6, 0.05M NaCl, 12.5 mM MgCl2, 1 mM EGTA and DAG kinase at a concentration of 0.7 U/ml. The reaction was started by the addition of 10 μl of [γ-^32 P]ATP (1.0 μCi/tube) in 5 mM ATP and incubated at room temperature for 30 min and stopped by the extraction of lipids with 450 μl of CHCl3 :CH3 OH (1:2) and 20 μl of 1% HClO4. The monophase was mixed and after 10 min., 150 μl CHCl3 and 150 μl of 1% HClO4 were added and the tubes vortexed and centrifuged at 5000 g for 5 min. The lower organic phase was washed twice with 1% HClO4 and then dried in a Speed Vac Apparatus. The phosphorylation products, ceramide-1-phosphate and phosphatidic acid (fom DAG) were resolved on a 10 cm×10 cm LH P-K TLC plate (Whatman). Data was calculated as pmoles of ceramide/10^6 cells by scintillation counting. In Example 6, data (mean +/- SD) represent at least 4 independent studies in which *p<002 compared with unirradiated controls. […]

Series [5] has as its system WEHI-231 cells. Briefly: Apoptosis / cell death of WEHI-231 (propidium iodide FACS, gel electrophoresis, DAPI). It counts as cell-based, murine. Conditions: chelerythrine 10 μM or calphostin C 250 nM. The procedure: Cells undergoing apoptosis also shrink in size.
Cells, 5×10^5, were centrifuged at 1000 rpm and resuspended in approximately 100 μl cell culture media. The cell suspension was then mixed with 100 μl of DAPI (4',6-iamidino-2-phenylindole, Sigma D9542, 1 μg/ml in PBT (PBS+1% Triton X-100)). One drop of this mixture was placed on a microslide with a coverslip. The cells were viewed by fluorescence microscopy using an Olympus BX-40 microscope with a 100 Watt Mercury lamp, a 16 or 40 X Fluorite objective, N.A. 0.75, (Leco #1-UB527) and a UV filter cube (ex 330-385 nm, em 420 nm, wide band pass, Leco #U-M536). Images were photographed using an Optronics cooled low-light video camera (Leco #DEI-470TB) to which was attached a 2X coupler (Leco #HR200-CMT). The image was saved to a digital file at 72 dpi.
DNA degradation was assessed as previously described (Gottschalk et al., 1993; 1994). Briefly, following treatment in 100 mm plates or 24 well plates, cells were collected and lysed in 0.5 ml lysis buffer (0.6% SDS+10 mM EDTA, pH 7.0). NaCl was added to a final concentration of 1M, mixed by inversion, incubated for 12 hours at 4° C. and then spun at 14,000 g for 30 minutes. Samples were treated with chloroform (1:1) and precipitated in ethanol prior to electrophoresis in a 3% agarose gel and visualized with ethidium bromide.

Series [6] deals with WEHI-231 cells. Briefly: Sphingomyelin mass by lipid extraction / TLC. Conditions: 250 nM calphostin C, 2 hours. It counts as cell-based, murine. The procedure: (§4) FIG. 7A. Inhibition of PKC causes an increase in ceramide production through the activation of a neutral sphingomyelinase and decreases in sphingomyelin levels. Ceramide production was quantitated using the DAG kinase assay for WEHI-231 JM cells and total lipid extraction was used to assay sphingomyelin mass. Following addition of 10 μM chelerythrine, cells were lysed at the appropriate time points as described herein. Each data point represents the average percentage change in ceramide or sphingomyelin generation from baseline derived from at least 8 independent studies for all time points with the exception of those marked with * (n=4). Standard deviations depicted by error bars.
(§5) FIG. 7B. […] Ceramide production and sphingomyelin mass was quantitated identical to that for chelerythrine. Cells were lysed 2 hours following the addition of 250 nM calphostin C. […]
Cells were prelabeled with [^3 H] palmitate (10 μCi/ml) for 24 hours to isotopic equilibrium in 15 ml glass tubes to minimize changes in cellular ceramide and sphingomyelin due to handling and changing of media (Borchardt et al., 1994). […] Autoradiographs were quantitated using an Epson 1200 c 30 bit scanner and NIH Image software (public domain program developed at the NIH and available from the Internet via FTP from zippy.nimh.nih.gov). […]

The test system of another series is protein kinase C (PKC). The note with it: cited from earlier work.
The subject of series [7] is WEHI-231 cells. The note with it: Chmura et al., 1996a; cited from earlier work.
In another series the test system is cyclic-AMP kinase (PKA). Conditions: cited from earlier work.
Series [8] deals with WEHI-231 cells. Kind of series: Ceramide production by DAG kinase assay. The note with it: 250 nM calphostin C, 2 hours. It is filed as cell-based, murine. Here is the method:
as §4, §5
Quantitation of ceramide by diacylglycerol kinase was similar to that described by Dressler and Kolesnick (1990). […] Data was calculated as pmoles of ceramide/10^6 cells by scintillation counting. […]
In order to test whether PKC inhibition alters ceramide production, the DAG kinase assay was used to quantify intracellular ceramide following chelerythrine and calphostin C treatment (Dressler and Kolesnick, 1990; Preiss et al., 1986). […]

Turning to `CCCCCCCCCCCCCCC[C@H](O)[C@@H](N)CO` (relative stereo) [DL-threo-dihydrosphingosine], the IC50 with WEHI-231 JM cells [1] and in the series on WEHI-231 OE cells [2] was 3000 nM throughout.

On to `CN[C@@H]1C[C@H]2O[C@@](C)([C@@H]1OC)n1c3ccccc3c3c4c(c5c6ccccc6n2c5c31)C(=O)NC4` [staurosporine], for which, in the series on HL-60 cells, the “apoptosis in HL-60 cells” value was “both to antagonize (Cotter et al., 1992) and to initiate apoptosis in HL-60 cells”.

Consider `CCCCCCCC/C=C\CCCCCCCC(=O)NCCO` [N-oleoylethanolamine], for which the “resistance to apoptosis vs parental line” value with WEHI-231 OE cells [3] was 3 fold. Besides, the “intracellular accumulation of ceramide” value with WEHI-231 JM cells [4] is reported as “rose within 24 hours in a dose dependent manner”.

Turning to Calphostin C, the cell death entry with WEHI-231 cells [5] (24 hours) is “greater than 90%”. Moreover, the “DNA laddering and nuclear condensation” value in the series with WEHI-231 cells [5] is “DNA laddering and nuclear condensation”. In addition, in the series with WEHI-231 cells [6], the “sphingomyelin levels” value is reported as “decreased sphingomyelin levels”. Also, the “specificity at blocking PKC vs staurosporin and H7” value with protein kinase C (PKC) is on record as “at least 30 fold”. In the series on WEHI-231 cells [7], the “interaction with exogenous ceramide analogs in inducing apoptosis” value was “act in synergy with exogenous ceramide analogs to induce apoptosis”. Moreover, in the series on cyclic-AMP kinase (PKA) (at concentrations used for the inventors' studies), the “inhibition of PKA” value is given as “do not appear to inhibit other kinases”. In addition, the half-inhibitory concentration (IC50) (commonly the concentration needed to halve the response being measured) at cyclic-AMP kinase (PKA) was 50000 nM. Moreover, the “ceramide production” value in the series on WEHI-231 cells [8] is given as “induced cerarnide production”.
